According to US9109041B2, “Analog compounds of analgesic peptides derived from the venom of crotalus durissus terrificus snakes, their uses, compositions, methods of preparation and purification” (priority 2004, dated 2015):

Tests used:
[1] = system: allodynia induced by constriction of the sciatic nerve; test: allodynia induced by chronic constriction of the sciatic nerve (von Frey hairs); format: in vivo, rat
Description: For the induction of neuropathic pain, surgery was performed in the sciatic nerve, in accordance with the method described by Bennett, G. J and Xie, Y. K. (Pain, 33:87-107, 1988). The animals were anesthetized with halothane. The sciatic nerve was exposed in the middle region of the thigh, moving away the femoral biceps muscle. Close to the trifurcation of the sciatic nerve, 7 mm of distance from the trifurcation, 4 loose ligations were performed (chromed catgut 4-0) around it, distant from each other in approximately 1 mm. The bindings were performed along the nerve, up to 4-5 mm from the initial point. The incision was sutured in layers, using silk suture thread number 4-0.
Allodynia was evaluated for quantitative testing, in response to tactile stimulus applied to the paws of the rat, according to the method described by Chaplan el al. (1994), modified. In this test, the rats were placed, individually, in plastic cages, with meshed wire at the bottom, to allow access to the paws of these animals. Briefly, a logarithmic series of 10 calibrated Semmes-Weinstein monofilaments (von Frey hairs, Aesthesiometer Semmer-Weinstein, Stoelting Co., E.U.A) was applied to the right hind paw to determine the stimulus intensity threshold stiffness required to elicit a paw withdrawal response. Log stiffness of the hairs is determined by log 10 (mg×10) having the following values (the value in grams is between parenthesis): 3.61 (0.407 g); 3.84 (0.692 g); 4.08 (1.202 g); 4.17 (1.479 g); 4.31 (2.041 g); 4.56 (3.630 g); 4.74 (5.495 g); 4.93 (8.511 g); 5.07 (11.749 g) and 5.18 (15.136 g). It is important to point out that the filaments with weight greater than 15.136 g were not employed in the studies of allodynia.
The filaments were applied, one by one, perpendicularly, under the plantar area of both hind paws and maintained for a period of 8 seconds. The filament capable of eliciting the withdrawal of the paw, two consecutive times, was considered as the force in grams necessary to elicit the response (100% of response). In the absence of a response to the greater stimulus (15.135 g), this filament was considered as cut value.
The behavioral responses were used to calculate the 50% paw withdrawal threshold (absolute threshold), by fitting a gaussian integral psychometric function, using a maximum-likelihood fitting method. This fitting method allows parametric analyses.
The period of the application of the test and the treatments were the same as those used for determination of hyperalgesia (Table 12).
The results were analyzed by comparing the means of the basal and initial measurements or, when determined, by comparing the means obtained in the different experimental groups.
For this purpose, the animals were treated with CTOP, a specific μ receptor antagonist (20 μg/paw), nor-BNI, a specific κ receptor antagonist (50 μg/paw) or with ICI 174,864, a specific δ receptor antagonist (10 μg/paw). The antagonists were injected, by intraplantar route. The peptide was administered in the dose of 5 μg/kg, orally, immediately before the injection of the opioid antagonists.
The results were analyzed comparing the mean values of the basal and initial measurements, or of the initial and final measurements or, when determined, by comparing the mean values obtained in the different experimental groups (Tables 15 and 16).

[2] = system: prostaglandin E2-induced hyperalgesia; test: rat paw pressure test, prostaglandin E2-induced hyperalgesia

For “Xaa-Phe-Ser-Pro-Glu-Asn-Cys-Gln-Gly-Glu-Ser-Gln-Pro-Cys [SEQ ID NO: 2]”, which “paw withdrawal threshold (allodynia), IM” value ([1]; 5 μg/kg p.o. + nor-BNI 50 μg/paw i.pl., day 14, before peptide) is on record?
The value was 4.25 ± 0.03 log 10 (mg × 10).

And the “paw withdrawal threshold (allodynia), FM 1 h” value ([1]; 5 μg/kg p.o., 1 h after peptide (Table 16))?
Its value is 5.08 ± 0.01 log 10 (mg × 10).

What about the “paw withdrawal threshold (allodynia), FM 3 h” value ([1]; 5 μg/kg p.o., 3 h after peptide (Table 16)) of the same substance?
The value was 5.09 ± 0 log 10 (mg × 10).

What about the “paw withdrawal threshold (allodynia), BM” value ([1]; 5 μg/kg p.o., before surgery (Table 12)) of the same substance?
Its value is 4.99 ± 0.03 log 10 (mg × 10).

And the “paw withdrawal threshold (allodynia), BM” value ([1]; 5 μg/kg p.o., before surgery (Table 16))?
Its value is 5.00 ± 0.03 log 10 (mg × 10).

And the “paw withdrawal threshold (allodynia), FM 1 h” value ([1]; 5 μg/kg p.o., day 14, 1 h after peptide (Table 12))?
Its value is 4.94 ± 0.05 log 10 (mg × 10).

What about the “paw withdrawal threshold (allodynia), FM 3 h” value ([1]; 5 μg/kg p.o., day 14, 3 h after peptide (Table 12)) of the same substance?
The value was 4.98 ± 0.04 log 10 (mg × 10).

What about the “paw withdrawal threshold (allodynia), FM 24 h” value ([1]; 5 μg/kg p.o., day 14, 24 h after peptide) of the same substance?
Its value is 4.97 ± 0.03 log 10 (mg × 10).

And the “paw withdrawal threshold (allodynia), FM 48 h” value ([1]; 5 μg/kg p.o., day 14, 48 h after peptide)?
Its value is 4.93 ± 0.04 log 10 (mg × 10).

What about the “paw withdrawal threshold (allodynia), FM 72 h” value ([1]; 5 μg/kg p.o., day 14, 72 h after peptide) of the same substance?
The value was 4.85 ± 0.02 log 10 (mg × 10).

What about the “paw withdrawal threshold (allodynia), FM 96 h” value ([1]; 5 μg/kg p.o., day 14, 96 h after peptide) of the same substance?
Its value is 4.21 ± 0.01 log 10 (mg × 10).

What about the “paw withdrawal threshold (allodynia), IM” value ([1]; 5 μg/kg p.o., day 14, before peptide (Table 16)) of the same substance?
The value was 4.27 ± 0.04 log 10 (mg × 10).

What about the “paw withdrawal threshold (allodynia), IM” value ([1]; 5 μg/kg p.o., day 14 after surgery, before peptide (Table 12)) of the same substance?
The value was 4.23 ± 0.00 log 10 (mg × 10).

And the “duration of the anti-allodynic effect” value ([1]; one single administration p.o.)?
The value was “up to 3 days”.

What about the “effect of the mu opioid receptor antagonist on the anti-allodynic effect of the peptide” value ([1]; peptide 5 μg/kg p.o., CTOP 20 μg/paw i.pl.) of the same substance?
Its value is “did not alter”.

What about the “effect of the delta opioid receptor antagonist on the anti-allodynic effect of the peptide” value ([1]; peptide 5 μg/kg p.o., ICI 174,864 10 μg/paw i.pl.) of the same substance?
The value was “blocked”.

And the “effect of the kappa opioid receptor antagonist on the anti-allodynic effect of the peptide” value ([1]; peptide 5 μg/kg p.o., nor-BNI 50 μg/paw i.pl.)?
Its value is “partially inhibited”.

What about the “pain threshold, FM (g) ± S.E.M” value ([2]; 0.00000256 μg/paw i.pl., 3 h after PGE2 100 ng/paw i.pl.) of the same substance?
The value was 57 ± 5.34 g.

And the “pain threshold, IM (g) ± S.E.M.” value ([2]; 0.00000256 μg/paw i.pl., before PGE2)?
Its value is 72 ± 1.12 g.

And the “pain threshold, FM (g) ± S.E.M” value ([2]; 0.0000128 μg/kg i.v., 3 h after PGE2 100 ng/paw i.pl.)?
The value was 54 ± 3.04 g.

What about the “pain threshold, IM (g) ± S.E.M.” value ([2]; 0.0000128 μg/kg i.v., before PGE2) of the same substance?
Its value is 70 ± 2.05 g.

What about the “pain threshold, FM (g) ± S.E.M” value ([2]; 0.0000128 μg/paw i.pl., 3 h after PGE2 100 ng/paw i.pl.) of the same substance?
Its value is 62 ± 3.22 g.

What about the “pain threshold, IM (g) ± S.E.M.” value ([2]; 0.0000128 μg/paw i.pl., before PGE2) of the same substance?
The value was 71 ± 2.39 g.

And the “pain threshold, FM (g) ± S.E.M” value ([2]; 0.000064 μg/kg i.v., 3 h after PGE2 100 ng/paw i.pl.)?
The value was 54 ± 2.39 g.

And the “pain threshold, IM (g) ± S.E.M.” value ([2]; 0.000064 μg/kg i.v., before PGE2)?
Its value is 68 ± 1.44 g.

What about the “pain threshold, FM (g) ± S.E.M” value ([2]; 0.00032 μg/kg i.v., 3 h after PGE2 100 ng/paw i.pl.) of the same substance?
Its value is 63 ± 5.16 g.

And the “pain threshold, IM (g) ± S.E.M.” value ([2]; 0.00032 μg/kg i.v., before PGE2)?
The value was 72 ± 1.84 g.

And the “pain threshold, FM (g) ± S.E.M” value ([2]; 0.00032 μg/paw i.pl., 3 h after PGE2 100 ng/paw i.pl.)?
Its value is 60 ± 3.25 g.

What about the “pain threshold, IM (g) ± S.E.M.” value ([2]; 0.00032 μg/paw i.pl., before PGE2) of the same substance?
The value was 67 ± 2.35 g.

What about the “pain threshold, FM (g) ± S.E.M” value ([2]; 0.0016 μg/kg i.v., 3 h after PGE2 100 ng/paw i.pl.) of the same substance?
Its value is 67 ± 2.35 g.

And the “pain threshold, IM (g) ± S.E.M.” value ([2]; 0.0016 μg/kg i.v., before PGE2)?
Its value is 74 ± 0.92 g.

And the “pain threshold, FM (g) ± S.E.M” value ([2]; 0.0016 μg/kg p.o., 3 h after PGE2 100 ng/paw i.pl.)?
Its value is 64 ± 1.00 g.

What about the “pain threshold, IM (g) ± S.E.M.” value ([2]; 0.0016 μg/kg p.o., before PGE2) of the same substance?
The value was 78 ± 1.22 g.

And the “pain threshold, FM (g) ± S.E.M” value ([2]; 0.0016 μg/paw i.pl., 3 h after PGE2 100 ng/paw i.pl.)?
Its value is 67 ± 1.12 g.

What about the “pain threshold, IM (g) ± S.E.M.” value ([2]; 0.0016 μg/paw i.pl., before PGE2) of the same substance?
The value was 72 ± 1.84 g.

And the “pain threshold, FM (g) ± S.E.M” value ([2]; 0.008 μg/kg i.v., 3 h after PGE2 100 ng/paw i.pl.)?
The value was 73 ± 4.74 g.

What about the “pain threshold, IM (g) ± S.E.M.” value ([2]; 0.008 μg/kg i.v., before PGE2) of the same substance?
The value was 69 ± 2.26 g.

And the “pain threshold, FM (g) ± S.E.M” value ([2]; 0.008 μg/kg p.o., 3 h after PGE2 100 ng/paw i.pl.)?
The value was 71 ± 2.39 g.

And the “pain threshold, IM (g) ± S.E.M.” value ([2]; 0.008 μg/kg p.o., before PGE2)?
Its value is 79 ± 1.25 g.

What about the “pain threshold, FM (g) ± S.E.M” value ([2]; 0.04 μg/kg p.o., 3 h after PGE2 100 ng/paw i.pl.) of the same substance?
Its value is 75 ± 1.87 g.

What about the “pain threshold, IM (g) ± S.E.M.” value ([2]; 0.04 μg/kg p.o., before PGE2) of the same substance?
The value was 77 ± 1.22 g.

What about the “pain threshold, FM (g) ± S.E.M” value ([2]; 0.2 μg/kg p.o., 3 h after PGE2 100 ng/paw i.pl.) of the same substance?
Its value is 84 ± 1.87 g.

And the “pain threshold, IM (g) ± S.E.M.” value ([2]; 0.2 μg/kg p.o., before PGE2)?
The value was 77 ± 2.00 g.

What about the “pain threshold, FM (g) ± S.E.M” value ([2]; 1 μg/kg p.o. + CTOP 20 μg/leg i.pl. with PGE2, 3 h after PGE2) of the same substance?
Its value is 114 ± 1.87 g.

What about the “pain threshold, IM (g) ± S.E.M.” value ([2]; 1 μg/kg p.o. + CTOP 20 μg/leg i.pl., before PGE2) of the same substance?
The value was 77 ± 1.22 g.

What about the “pain threshold, FM (g) ± S.E.M” value ([2]; 1 μg/kg p.o. + ICI174,864 10 μg/paw i.pl. with PGE2, 3 h after PGE2) of the same substance?
Its value is 114 ± 1.00 g.

What about the “pain threshold, IM (g) ± S.E.M.” value ([2]; 1 μg/kg p.o. + ICI174,864 10 μg/paw i.pl., before PGE2) of the same substance?
Its value is 78 ± 1.22 g.

And the “pain threshold, FM (g) ± S.E.M” value ([2]; 1 μg/kg p.o. + nor-Binalthorphimine 50 μg/leg i.pl. with PGE2, 3 h after PGE2)?
Its value is 56 ± 1.87 g.

What about the “pain threshold, IM (g) ± S.E.M.” value ([2]; 1 μg/kg p.o. + nor-Binalthorphimine 50 μg/leg i.pl., before PGE2) of the same substance?
The value was 77 ± 1.22 g.

What about the “pain threshold, IM (g) ± S.E.M.” value ([2]; 1 μg/kg p.o., 0 h, before administration (Table 6)) of the same substance?
The value was 79 ± 1.00 g.

What about the “pain threshold, FM (g) ± S.E.M” value ([2]; 1.0 μg/kg p.o., 3 h after PGE2 100 ng/paw i.pl. (Table 2)) of the same substance?
Its value is 108 ± 2.00 g.
